Data taken from ChEMBL document CHEMBL4038283, “Synthesis of conformationally restricted 1,3-dioxanes to analyze the bioactive conformation of 1,3-dioxane-based σ1 and PCP receptor antagonists” (Bioorg Med Chem, 2017).

Legend:
[1] = target: Sigma non-opioid intracellular receptor 1 (Cavia porcellus, UniProt Q60492); assay: Displacement of [3H]-(+)-pentazocine from sigma1 receptor in guinea pig brain cortex membrane incubated for 120 mins measured for 5 mins by scintillation counting method; format: cell membranes
Sigma non-opioid intracellular receptor 1, sequence (Q60492 whole entry): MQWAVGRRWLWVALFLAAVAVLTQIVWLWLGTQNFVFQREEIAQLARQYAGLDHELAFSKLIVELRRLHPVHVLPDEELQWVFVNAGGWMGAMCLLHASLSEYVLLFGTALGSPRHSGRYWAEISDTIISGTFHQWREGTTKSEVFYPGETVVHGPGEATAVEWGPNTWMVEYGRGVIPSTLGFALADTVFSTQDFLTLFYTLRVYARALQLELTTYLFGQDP

[2] = target: T1, Sigma intracellular receptor 2 (Rattus norvegicus, UniProt Q5U3Y7); assay: Displacement of [3H]-di-o-tolylguanidine from sigma2 receptor in rat liver membrane incubated for 120 mins measured for 5 mins by scintillation counting method; format: cell membranes
T1 sequence (Q5U3Y7 whole entry): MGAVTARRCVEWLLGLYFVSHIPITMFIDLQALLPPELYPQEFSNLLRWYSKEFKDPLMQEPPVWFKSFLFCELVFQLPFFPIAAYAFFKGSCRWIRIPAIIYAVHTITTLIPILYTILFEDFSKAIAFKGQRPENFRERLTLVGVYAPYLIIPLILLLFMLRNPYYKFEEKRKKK

[3] = Displacement of [3H]-(+)-MK-801 from NMDA PCP binding site in pig brain cortex membrane incubated for 120 mins measured for 5 mins by scintillation counting method; format: cell membranes, Sus scrofa

SMILES	Ki [1] [nM]	Ki [2] [nM]	Ki [3] [nM]
c1ccc(CNCCC2CC3OC(Cc4ccccc43)O2)cc1 (racemic; 21a)	30	> 1000	> 1000
NCCC1CC2OC(Cc3ccccc32)O1 (racemic)	> 1000	> 1000	–
c1ccc(CNCCC2CC3OC(Cc4ccccc43)O2)cc1 (racemic; 21b)	5.9	153	–
NCCC1CC2OC(Cc3ccccc32)O1 (mixture of isomers)	> 1000	> 1000	> 1000
CN(C)CCC1CC2OC(Cc3ccccc32)O1 (racemic)	> 1000	> 1000	> 1000
c1ccc(CN(CCC2CC3OC(Cc4ccccc43)O2)Cc2ccccc2)cc1 (racemic; 22a)	1400	> 1000	> 1000
c1ccc(CN(CCC2CC3OC(Cc4ccccc43)O2)Cc2ccccc2)cc1 (racemic; 22b)	782	> 1000	–
